# Target: T1, hCB1 (Homo sapiens, UniProt P21554)
# T1 construct: made in house; host or cells: Sf9 insect cells (baculovirus), P2 membranes
# Experiment: Agonist-induced GTP binding (GTPγ35S) assay at CB1, Example 8
# Format: biochemical
# Settings: IC50 at CB1, determined as described in Example 8; read-out: IC50
# In short: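 Antagonism read as inhibition of 1 nM CP55,940-stimulated GTPγ35S ([…]) binding, compounds at 10^−10 to 10^−5 M. Baculovirus-infected Sf9 membranes bearing hCB1 plus G-protein subunits, 60 min room-temperature incubation with 5 μM GDP. Filtration and scintillation counting; data as percent over basal.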
# T1 sequence (P21554 whole entry): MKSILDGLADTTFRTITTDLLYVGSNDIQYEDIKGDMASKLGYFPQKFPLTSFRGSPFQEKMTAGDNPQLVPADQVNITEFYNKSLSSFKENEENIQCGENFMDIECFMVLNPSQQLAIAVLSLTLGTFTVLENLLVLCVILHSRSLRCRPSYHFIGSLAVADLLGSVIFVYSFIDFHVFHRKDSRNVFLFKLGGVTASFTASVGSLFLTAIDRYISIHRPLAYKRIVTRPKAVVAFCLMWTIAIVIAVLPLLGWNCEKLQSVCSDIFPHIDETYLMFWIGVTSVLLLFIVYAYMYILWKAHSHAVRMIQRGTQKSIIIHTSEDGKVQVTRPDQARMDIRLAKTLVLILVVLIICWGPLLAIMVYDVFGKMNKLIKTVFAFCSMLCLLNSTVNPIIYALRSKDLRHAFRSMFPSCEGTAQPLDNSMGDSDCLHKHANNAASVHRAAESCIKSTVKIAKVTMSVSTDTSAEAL
row,IC50 [nM],Compound
1,< 2000,"CCOc1ccc(NC(=O)Nc2ccc(Cl)cc2)cc1 [Compound 390, 1-(4-chlorophenyl)-3-(4-ethoxyphenyl)urea]"
2,< 2000,"CCc1ccc(NC(=O)Nc2cccc(COC)c2)cc1 [Compound 391, 1-(4-ethylphenyl)-3-[3-(methoxymethyl)phenyl]urea]"
3,< 2000,"CCc1cccc(NC(=O)Nc2ccc(COC)cc2)c1 [Compound 392, 1-(3-ethylphenyl)-3-[4-(methoxymethyl)phenyl]urea]"
4,< 2000,"CCc1ccc(NC(=O)Nc2ccc(COC)cc2)cc1 [Compound 393, 1-(4-ethylphenyl)-3-[4-(methoxymethyl)phenyl]urea]"
5,< 2000,"COCc1ccc(NC(=O)Nc2cccc(Cl)c2)cc1 [Compound 394, 1-(3-chlorophenyl)-3-[4-(methoxymethyl)phenyl]urea]"
6,< 2000,"COCc1ccc(NC(=O)Nc2ccc(Cl)cc2)cc1 [Compound 395, 1-(4-chlorophenyl)-3-[4-(methoxymethyl)phenyl]urea]"
7,< 2000,"CCCOc1ccc(NC(=O)Nc2cccc(CC)c2)cc1 [Compound 396, 1-(3-ethylphenyl)-3-(4-propoxyphenyl)urea]"
8,< 2000,"CCCOc1ccc(NC(=O)Nc2cccc(Cl)c2)cc1 [Compound 397, 1-(3-chlorophenyl)-3-(4-propoxyphenyl)urea]"
9,< 2000,"CCCOc1ccc(NC(=O)Nc2ccc(Cl)cc2)cc1 [Compound 398, 1-(4-chlorophenyl)-3-(4-propoxyphenyl)urea]"
10,< 2000,"CCc1cccc(NC(=O)Nc2cccc(OC(C)C)c2)c1 [Compound 399, 1-(3-ethylphenyl)-3-(3-isopropoxyphenyl)urea]"
11,< 2000,"CC(C)Oc1cccc(NC(=O)Nc2cccc(Cl)c2)c1 [Compound 400, 1-(3-chlorophenyl)-3-(3-isopropoxyphenyl)urea]"
12,< 2000,"CC(C)Oc1cccc(NC(=O)Nc2ccc(Cl)cc2)c1 [Compound 401, 1-(4-chlorophenyl)-3-(3-isopropoxyphenyl)urea]"
13,< 2000,"CCc1cccc(NC(=O)Nc2ccc(OC(C)C)cc2)c1 [Compound 402, 1-(3-ethylphenyl)-3-(4-isopropoxyphenyl)urea]"
14,< 2000,"CCc1ccc(NC(=O)Nc2ccc(OC(C)C)cc2)cc1 [Compound 403, 1-(4-ethylphenyl)-3-(4-isopropoxyphenyl)urea]"
15,< 2000,"CC(C)Oc1ccc(NC(=O)Nc2cccc(Cl)c2)cc1 [Compound 404, 1-(3-chlorophenyl)-3-(4-isopropoxyphenyl)urea]"
16,< 2000,"CC(C)Oc1ccc(NC(=O)Nc2ccc(Cl)cc2)cc1 [Compound 405, 1-(4-chlorophenyl)-3-(4-isopropoxyphenyl)urea]"
17,< 2000,"CCc1cccc(NC(=O)Nc2cccc(OC(F)F)c2)c1 [Compound 406, 1-[3-(difluoromethoxy)phenyl]-3-(3-ethylphenyl)urea]"
18,< 2000,"CCc1ccc(NC(=O)Nc2cccc(OC(F)F)c2)cc1 [Compound 407, 1-[3-(difluoromethoxy)phenyl]-3-(4-ethylphenyl)urea]"
19,< 2000,"COc1cccc(NC(=O)Nc2ccc(C(C)=O)cc2)c1 [Compound 408, 1-(4-acetylphenyl)-3-(3-methoxyphenyl)urea]"

row,IC50 [nM],Compound
1,< 2000,"COc1ccc(NC(=O)Nc2cccc(C#N)c2)cc1 [Compound 409, 1-(3-cyanophenyl)-3-(4-methoxyphenyl)urea]"
2,< 2000,"COc1ccc(NC(=O)Nc2ccc(C(C)=O)cc2)cc1 [Compound 410, 1-(4-acetylphenyl)-3-(4-methoxyphenyl)urea]"
3,< 2000,"CCOc1ccc(NC(=O)Nc2cccc(C(C)=O)c2)cc1 [Compound 412, 1-(3-acetylphenyl)-3-(4-ethoxyphenyl)urea]"
4,< 2000,"CCOc1ccc(NC(=O)Nc2ccc(C(C)=O)cc2)cc1 [Compound 413, 1-(4-acetylphenyl)-3-(4-ethoxyphenyl)urea]"
5,< 2000,"COCc1ccc(NC(=O)Nc2cccc(C(C)=O)c2)cc1 [Compound 414, 1-(3-acetylphenyl)-3-[4-(methoxymethyl)phenyl]urea]"
6,< 2000,"COCc1ccc(NC(=O)Nc2ccc(C(C)=O)cc2)cc1 [Compound 415, 1-(4-acetylphenyl)-3-[4-(methoxymethyl)phenyl]urea]"
7,< 2000,"CCCOc1ccc(NC(=O)Nc2cccc(C(C)=O)c2)cc1 [Compound 416, 1-(3-acetylphenyl)-3-(4-propoxyphenyl)urea]"
8,< 2000,"CCCOc1ccc(NC(=O)Nc2ccc(C(C)=O)cc2)cc1 [Compound 417, 1-(4-acetylphenyl)-3-(4-propoxyphenyl)urea]"
9,< 2000,"CC(C)Oc1cccc(NC(=O)Nc2cccc(C#N)c2)c1 [Compound 418, 1-(3-cyanophenyl)-3-(3-isopropoxyphenyl)urea]"
10,< 2000,"CC(=O)c1cccc(NC(=O)Nc2cccc(OC(C)C)c2)c1 [Compound 419, 1-(3-acetylphenyl)-3-(3-isopropoxyphenyl)urea]"
11,< 2000,"CC(=O)c1ccc(NC(=O)Nc2cccc(OC(C)C)c2)cc1 [Compound 420, 1-(4-acetylphenyl)-3-(3-isopropoxyphenyl)urea]"
12,< 2000,"CC(C)Oc1ccc(NC(=O)Nc2ccc(C#N)cc2)cc1 [Compound 421, 1-(4-cyanophenyl)-3-(4-isopropoxyphenyl)urea]"
13,< 2000,"CC(C)Oc1ccc(NC(=O)Nc2cccc(C#N)c2)cc1 [Compound 422, 1-(3-cyanophenyl)-3-(4-isopropoxyphenyl)urea]"
14,< 2000,"CC(=O)c1cccc(NC(=O)Nc2ccc(OC(C)C)cc2)c1 [Compound 423, 1-(3-acetylphenyl)-3-(4-isopropoxyphenyl)urea]"
15,< 2000,"CC(=O)c1ccc(NC(=O)Nc2ccc(OC(C)C)cc2)cc1 [Compound 424, 1-(4-acetylphenyl)-3-(4-isopropoxyphenyl)urea]"
16,< 2000,"CC(=O)c1cccc(NC(=O)Nc2cccc(OC(F)F)c2)c1 [Compound 425, 1-(3-acetylphenyl)-3-[3-(difluoromethoxy)phenyl]urea]"
17,< 2000,"CC(=O)c1ccc(NC(=O)Nc2cccc(OC(F)F)c2)cc1 [Compound 426, 1-(4-acetylphenyl)-3-[3-(difluoromethoxy)phenyl]urea]"
18,< 2000,"CC(=O)c1ccc(NC(=O)Nc2ccc(OC(F)F)cc2)cc1 [Compound 427, 1-(4-acetylphenyl)-3-[4-(difluoromethoxy)phenyl]urea]"
19,< 2000,"Cc1ccc(NC(=O)Nc2ccc(F)cc2)cc1C [Compound 428, 1-(3,4-dimethylphenyl)-3-(4-fluorophenyl)urea]"

row,IC50 [nM],Compound
1,< 2000,"Cc1ccc(NC(=O)Nc2cccc(F)c2)cc1F [Compound 429, 1-(3-fluoro-4-methylphenyl)-3-(3-fluorophenyl)urea]"
2,< 2000,"Cc1ccc(NC(=O)Nc2ccc(F)cc2)cc1F [Compound 430, 1-(3-fluoro-4-methylphenyl)-3-(4-fluorophenyl)urea]"
3,< 2000,"O=C(Nc1cccc(F)c1)Nc1ccc2c(c1)CCC2 [Compound 431, 1-(2,3-dihydro-1H-inden-5-yl)-3-(3-fluorophenyl)urea]"
4,< 2000,"O=C(Nc1ccc(F)cc1)Nc1ccc2c(c1)CCC2 [Compound 432, 1-(2,3-dihydro-1H-inden-5-yl)-3-(4-fluorophenyl)urea]"
5,< 2000,"Cc1ccc(NC(=O)Nc2cccc(F)c2)cc1Cl [Compound 433, 1-(3-chloro-4-methylphenyl)-3-(3-fluorophenyl)urea]"
6,< 2000,"Cc1ccc(NC(=O)Nc2ccc(F)cc2)cc1Cl [Compound 434, 1-(3-chloro-4-methylphenyl)-3-(4-fluorophenyl)urea]"
7,< 2000,"Cc1ccc(NC(=O)Nc2ccccc2)cc1Cl [Compound 435, 1-(3-chloro-4-methylphenyl)-3-phenylurea]"
8,< 2000,"CCc1ccc(NC(=O)Nc2ccc(C)c(C)c2)cc1 [Compound 436, 1-(3,4-dimethylphenyl)-3-(4-ethylphenyl)urea]"
9,< 2000,"Cc1ccc(NC(=O)Nc2ccc(Cl)cc2)cc1C [Compound 437, 1-(4-chlorophenyl)-3-(3,4-dimethylphenyl)urea]"
10,< 2000,"CCc1cccc(NC(=O)Nc2ccc(C)c(F)c2)c1 [Compound 438, 1-(3-ethylphenyl)-3-(3-fluoro-4-methylphenyl)urea]"
11,< 2000,"CCc1ccc(NC(=O)Nc2ccc(C)c(F)c2)cc1 [Compound 439, 1-(4-ethylphenyl)-3-(3-fluoro-4-methylphenyl)urea]"
12,< 2000,"CCc1ccc(NC(=O)Nc2ccc(F)c(C)c2)cc1 [Compound 440, 1-(4-ethylphenyl)-3-(4-fluoro-3-methylphenyl)urea]"
13,< 2000,"CCc1ccc(NC(=O)Nc2ccc(F)c(F)c2)cc1 [Compound 441, 1-(3,4-difluorophenyl)-3-(4-ethylphenyl)urea]"
14,< 2000,"CCc1ccc(NC(=O)Nc2ccc3c(c2)CCC3)cc1 [Compound 442, 1-(2,3-dihydro-1H-inden-5-yl)-3-(4-ethylphenyl)urea]"
15,< 2000,"O=C(Nc1ccc(Cl)cc1)Nc1ccc2c(c1)CCC2 [Compound 443, 1-(4-chlorophenyl)-3-(2,3-dihydro-1H-inden-5-yl)urea]"
16,< 2000,"CCc1ccc(NC(=O)Nc2ccc(C)c(Cl)c2)cc1 [Compound 444, 1-(3-chloro-4-methylphenyl)-3-(4-ethylphenyl)urea]"
17,< 2000,"Cc1ccc(NC(=O)Nc2ccc(Cl)cc2)cc1Cl [Compound 445, 1-(3-chloro-4-methylphenyl)-3-(4-chlorophenyl)urea]"
18,< 2000,"CCc1ccc(NC(=O)Nc2ccc(Cl)c(C)c2)cc1 [Compound 446, 1-(4-chloro-3-methylphenyl)-3-(4-ethylphenyl)urea]"
19,< 2000,"Cc1ccc(NC(=O)Nc2cccc(C#N)c2)cc1C [Compound 447, 1-(3-cyanophenyl)-3-(3,4-dimethylphenyl)urea]"

row,Compound,IC50 [nM]
1,"CCOc1ccc(NC(=O)Nc2ccc(C#N)cc2)cc1 [Compound 411, 1-(4-cyanophenyl)-3-(4-ethoxyphenyl)urea]",< 2000

# Source: patent publication US20090239841A1, “Diaryl Ureas as CB1 Antagonists” (priority 2004, published 2009)
